Earlier results in patent US9873913B2, “Mutation testing” (Roche Molecular Systems, Inc., priority 2013, dated 2018).

Test system: non-small cell lung cancer (NSCLC) patients
Details: relatively small subset of NSCLC patients after chemotherapy

SMILES	effect on survival (in words)
C#Cc1cccc(Nc2ncnc3cc(OCCOC)c(OCCOC)cc23)c1 [erlotinib]	prolong survival
COc1cc2ncnc(Nc3ccc(F)c(Cl)c3)c2cc1OCCCN1CCOCC1 [gefitinib]	prolong survival
